pKi: −log10 of the molar value. Structures can show the parent of a compound that is named as a salt.
What follows are compounds tested against α7 nAChR (Rattus norvegicus (Rat), UniProt Q05941) (assay: Inhibition of [3H]-methyllycaconitine binding to rat brain membranes). Settings: [3H]-methyllycaconitine displacement, rat brain membranes (hippocampus or whole brain); Ki=IC50/(1+L/KD).
α7 nAChR, sequence (Q05941 23-502): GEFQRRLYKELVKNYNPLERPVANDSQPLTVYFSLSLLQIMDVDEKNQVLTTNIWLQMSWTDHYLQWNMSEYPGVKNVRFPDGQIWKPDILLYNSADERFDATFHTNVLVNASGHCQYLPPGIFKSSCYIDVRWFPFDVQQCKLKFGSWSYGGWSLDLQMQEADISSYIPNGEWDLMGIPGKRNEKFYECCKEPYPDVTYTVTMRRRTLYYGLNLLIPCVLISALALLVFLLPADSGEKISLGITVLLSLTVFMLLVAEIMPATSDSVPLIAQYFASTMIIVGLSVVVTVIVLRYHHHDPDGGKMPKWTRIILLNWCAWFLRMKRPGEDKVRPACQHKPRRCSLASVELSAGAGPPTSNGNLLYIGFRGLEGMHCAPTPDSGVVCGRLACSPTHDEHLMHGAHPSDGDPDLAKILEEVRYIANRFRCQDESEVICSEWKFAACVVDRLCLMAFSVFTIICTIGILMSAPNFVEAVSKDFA
Protocol: Determination of the Affinity of Test Substaces for α7 nAChR by Inhibition of [^3H]-Methyllycaconitine Binding to Rat Brain Membranes
The [^3H]-methyllycaconitine binding assay is a modification of the method described by Davies et al. in Neuropharmacol. 1999, 38, 679-690.
Rat brain tissue (hippocampus or whole brain) is homogenized in homogenization buffer (10% w/v, 0.32 M sucrose, 1 mM EDTA, 0.1 mM phenylmethylsulphonyl fluoride (PMSF), 0.01% (w/v) NaN3, pH 7.4, 4° C.) at 600 rpm in a glass homogenizer. The homogenate is centrifuged (1000×g, 4° C., 10 min) and the supernatant is removed. The pellet is resuspended (20% w/v) and the suspension is centrifuged (1000×g, 4° C., 10 min). The two supernatants are combined and centrifuged (15 000×g, 4° C., 30 min). The pellet obtained in this way is referred to as the P2 fraction.
The P2 pellet is suspended in binding buffer (50 mM Tris-HCl, 1 mM MgCl2, 120 mM NaCl, 5 mM KCl, 2 mM CaCl2, pH 7.4), and the suspension is centrifuged (15 000×g, 4° C., 30 min), twice.
The residue is resuspended in binding buffer and incubated in a volume of 250 μl (amount of membrane protein 0.1-0.5 mg) in the presence of 1-5 nM [^3H]-methyllycaconitine 0.1% (w/v) BSA (bovine serum albumin) and various concentrations of the test substance at 21° C. for 2.5 h. […] in the presence of 1 μM α-bungarotoxin or 100 μM nicotine or 10 μM MLA (methyllycaconitine).
The incubation is stopped by adding 4 ml PBS (20 mM Na2HPO4, 5 mM KH2PO4, 150 mM NaCl, pH 7.4, 4° C.) and filtering through type A/E glass fibre filters (Gelman Sciences) which have previously been placed in 0.3% (v/v) polyethyleneimine (PEI) for 3 h. The filters are washed twice with 4 ml of PBS (4° C.), and the bound radioactivity is determined by scintillation measurement. All the assays are carried out in triplicate. The dissociation constant K1 of the test substance was determined from the IC50 of the compounds (concentration of the test substance at which 50% of the ligand bound to the receptor is displaced), the dissociation constant KD and the concentration L of [^3H]-methyllycaconitine using the equation Ki=IC50/(1+L/KD).
`O=C(N[C@H]1CN2CCC1CC2)c1cc2cccc(-c3ccccc3O)c2o1` [Example 186, N-[(3R)-1-Azabicyclo[2.2.2]oct-3-yl]-7-(2-hydroxyphenyl)-1-benzofuran-2-carboxamide] gave a pKi of 6.92.
`O=C(N[C@H]1CN2CCC1CC2)c1cc2ccc(-c3ccc(CO)cc3)cc2o1` [Example 3, N-[(3R)-1-Azabicyclo[2.2.2]oct-3-yl]-6-[4-(hydroxymethyl)phenyl]-1-benzofuran-2-carboxamide] gave a pKi of 7.22.
Work on `CCNC(=O)Nc1cccc(-c2cccc3cc(C(=O)N[C@H]4CN5CCC4CC5)oc23)c1` [Example 108, N-[(3R)-1-Azabicyclo[2.2.2]oct-3-yl]-7-(3-{[(ethylamino)carbonyl]amino}phenyl)-1-benzofuran-2-carboxamide hydrochloride] yielded a pKi of 7.77.
Work on `O=C(O)c1cccc(-c2cccc3cc(C(=O)N[C@H]4CN5CCC4CC5)oc23)c1` [Example 149, 3-(2-{[(3R)-1-Azabicyclo[2.2.2]oct-3-ylamino]carbonyl}-1-benzofuran-7-yl)-benzoic acid hydrochloride] yielded a pKi of 7.01.
For `O=C(N[C@H]1CN2CCC1CC2)c1cc2cccc(-c3ccc(N4CCOCC4)cc3)c2s1` [Example 19, N-[(3R)-1-Azabicyclo[2.2.2]oct-3-yl]-7-[4-(4-morpholinyl)phenyl]-1-benzothiophene-2-carboxamide hydrochloride], the pKi was 7.70.
With `O=C(N[C@H]1CN2CCC1CC2)c1cc2cccc(-c3cccc(NC(=O)C4CC4)c3)c2o1` [Example 116, N-[(3R)-1-Azabicyclo[2.2.2]oct-3-yl]-7-{3-[(cyclopropylcarbonyl)amino]phenyl}-1-benzofuran-2-carboxamide hydrochloride] the pKi was 7.77.
Work on `NCc1ccccc1-c1cccc2cc(C(=O)N[C@H]3CN4CCC3CC4)sc12` [Example 73, 7-[2-(Aminomethyl)phenyl]-N-[(3R)-1-azabicyclo[2.2.2]oct-3-yl]-1-benzothiophene-2-carboxamide dihydrochloride] yielded a pKi of over 9.00.
For `O=C(N[C@H]1CN2CCC1CC2)c1cc2cccc(-c3ccc(CO)cc3)c2s1` [Example 20, N-[(3R)-1-Azabicyclo[2.2.2]oct-3-yl]-7-[4-(hydroxymethyl)phenyl]-1-benzothiophene-2-carboxamide hydrochloride], the pKi was 8.80.
For `COc1ccccc1-c1cccc2cc(C(=O)N[C@H]3CN4CCC3CC4)oc12` [Example 130, N-[(3R)-1-Azabicyclo[2.2.2]oct-3-yl]-7-[2-(methoxy)phenyl]-1-benzofuran-2-carboxamide], the pKi was 7.59.
`O=C(O)c1cccc(-c2cccc3cc(C(=O)N[C@H]4CN5CCC4CC5)sc23)c1` [Example 75, 3-(2-{[(3R)-1-Azabicyclo[2.2.2]oct-3-ylamino]carbonyl}-1-benzothien-7-yl)-benzoic acid hydrochloride] gave a pKi of over 10.00.
In the case of `COc1cccc(-c2cccc3cc(C(=O)N[C@H]4CN5CCC4CC5)sc23)c1` [Example 17, N-[(3R)-1-Azabicyclo[2.2.2]oct-3-yl]-7-(3-methoxyphenyl)-1-benzothiophene-2-carboxamide hydrochloride], the pKi was 7.77.
`O=C(N[C@H]1CN2CCC1CC2)c1cc2cccc(-c3ccc(N4CCOCC4=O)cc3)c2o1` [Example 90, N-[(3R)-1-Azabicyclo[2.2.2]oct-3-yl]-7-[4-(3-oxo-4-morpholinyl)phenyl]-1-benzofuran-2-carboxamide hydrochloride] was tested, and the pKi was 7.85.
With `COc1ccc(OC)c(-c2cccc3cc(C(=O)N[C@H]4CN5CCC4CC5)oc23)c1` [Example 151, N-[(3R)-1-Azabicyclo[2.2.2]oct-3-yl]-7-(2,5-dimethoxyphenyl)-1-benzofuran-2-carboxamide hydrochloride] the pKi was 7.06.
For `O=C(N[C@H]1CN2CCC1CC2)c1cc2cccc(-c3ccccc3CO)c2o1` [Example 150, N-[(3R)-1-Azabicyclo[2.2.2]oct-3-yl]-7-[2-(hydroxymethyl)phenyl]-1-benzofuran-2-carboxamide hydrochloride], the pKi was 7.46.
In the case of `O=C(N[C@H]1CN2CCC1CC2)c1cc2ccc(-c3ccc(N4CCOCC4)cc3)cc2o1` [Example 4, N-[(3R)-1-Azabicyclo[2.2.2]oct-3-yl]-6-[4-(4-morpholinyl)phenyl]-1-benzofuran-2-carboxamide], the pKi was 7.62.
Compound `CNC(=O)NCc1ccccc1-c1cccc2cc(C(=O)N[C@H]3CN4CCC3CC4)oc12` [Example 175, N-[(3R)-1-Azabicyclo[2.2.2]oct-3-yl]-7-[2-({[(methylamino)carbonyl]amino}-methyl)phenyl]-1-benzofuran-2-carboxamide hydrochloride] has a pKi of 8.08.

Same assay, conditions: [3H]-methyllycaconitine displacement, rat brain membranes (hippocampus or whole brain); Ki=IC50/(1+L/KD); hydrochloride
Work on `COc1ccccc1-c1cccc2cc(C(=O)N[C@H]3CN4CCC3CC4)oc12` [Example 102, N-[(3R)-1-Azabicyclo[2.2.2]oct-3-yl]-7-[2-(methoxy)phenyl]-1-benzofuran-2-carboxamide hydrochloride] yielded a pKi of 7.21.

Source: US9067931B2, “2-heteroaryl carboxamides” (BAYER INTELLECTUAL PROPERTY GMBH, priority 2002, dated 2015)
